According to PubChem BioAssay (NCI):
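Protocol summary: plate cells (96-well), add compound at 5 concentrations, incubate 48 h, interpolate endpoints linearly. GI50 marks 50% less growth. At the TGI there is no net growth.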

Assays:
Assay in all cases: NCI-60 cell line screen, 48 h
OVCAR-4 ovarian = test system: OVCAR-4 ovarian
UO-31 renal = test system: UO-31 renal
K-562 leukemia = test system: K-562 leukemia
CAKI-1 renal = test system: CAKI-1 renal
SF-268 CNS = test system: SF-268 CNS
MOLT-4 leukemia = test system: MOLT-4 leukemia
OVCAR-3 ovarian = test system: OVCAR-3 ovarian
OVCAR-8 ovarian = test system: OVCAR-8 ovarian
NCI-H460 lung = test system: NCI-H460 lung
SK-MEL-2 melanoma = test system: SK-MEL-2 melanoma
A498 renal = test system: A498 renal
MALME-3M melanoma = test system: MALME-3M melanoma
A549 NSCLC = test system: A549 NSCLC
COLO 205 colon = test system: COLO 205 colon
SNB-19 CNS = test system: SNB-19 CNS
HOP-92 NSCLC = test system: HOP-92 NSCLC
HS 578T breast = test system: HS 578T breast
IGROV1 ovarian = test system: IGROV1 ovarian
NCI-H522 lung = test system: NCI-H522 lung
TK-10 renal = test system: TK-10 renal
RXF 393 renal = test system: RXF 393 renal
NCI/ADR-RES ovarian = test system: NCI/ADR-RES ovarian
MDA-MB-435 = test system: MDA-MB-435
KM12 colon = test system: KM12 colon
HOP-62 NSCLC = test system: HOP-62 NSCLC
MCF7 breast = test system: MCF7 breast
SK-MEL-5 melanoma = test system: SK-MEL-5 melanoma
HCC-2998 colon = test system: HCC-2998 colon
SF-539 CNS = test system: SF-539 CNS
HT29 colon = test system: HT29 colon
U251 CNS = test system: U251 CNS
ACHN renal = test system: ACHN renal
OVCAR-5 ovarian = test system: OVCAR-5 ovarian
UACC-257 melanoma = test system: UACC-257 melanoma
HCT-116 colon = test system: HCT-116 colon
SNB-75 CNS = test system: SNB-75 CNS
SN12C renal = test system: SN12C renal
SW-620 colon = test system: SW-620 colon
SK-OV-3 ovarian = test system: SK-OV-3 ovarian
786-0 renal = test system: 786-0 renal
T-47D breast = test system: T-47D breast
PC-3 prostate = test system: PC-3 prostate
LOX IMVI melanoma = test system: LOX IMVI melanoma
RPMI-8226 leukemia = test system: RPMI-8226 leukemia
BT-549 breast = test system: BT-549 breast
SK-MEL-28 melanoma = test system: SK-MEL-28 melanoma
UACC-62 melanoma = test system: UACC-62 melanoma
NCI-H226 lung = test system: NCI-H226 lung
M14 melanoma = test system: M14 melanoma
DU-145 prostate = test system: DU-145 prostate
HCT-15 colon = test system: HCT-15 colon
SF-295 CNS = test system: SF-295 CNS
MDA-MB-231 breast = test system: MDA-MB-231 breast
NCI-H23 lung = test system: NCI-H23 lung
EKVX NSCLC = test system: EKVX NSCLC

SMILES: CC(=O)OC1C(C)OC(Oc2c(C)c3c4c(c2O)[C@@H](C)CC[C@@H]4[C@@H](C)C[C@H]3C=C(C)C)C(O)C1O (some centres undefined)
- GI50 (OVCAR-4 ovarian): 3.2 µM
- TGI (OVCAR-4 ovarian): > 100 µM
- GI50 (UO-31 renal): 22.6 µM
- TGI (UO-31 renal): > 100 µM
- GI50 (K-562 leukemia): 2.24 µM
- TGI (K-562 leukemia): 5.27 µM
- GI50 (CAKI-1 renal): 1870 nM
- TGI (CAKI-1 renal): 3.74 µM
- GI50 (SF-268 CNS): 16 µM
- TGI (SF-268 CNS): 55.3 µM
- GI50 (MOLT-4 leukemia): 2.23 µM
- TGI (MOLT-4 leukemia): > 100 µM
- GI50 (OVCAR-3 ovarian): 1.7 µM
- TGI (OVCAR-3 ovarian): 3.33 µM
- GI50 (OVCAR-8 ovarian): 37.8 µM
- TGI (OVCAR-8 ovarian): > 100 µM
- GI50 (NCI-H460 lung): 3.57 µM
- TGI (NCI-H460 lung): > 100 µM
- GI50 (SK-MEL-2 melanoma): > 100 µM
- TGI (SK-MEL-2 melanoma): > 100 µM
- GI50 (A498 renal): 4.43 µM
- TGI (A498 renal): 14.7 µM
- GI50 (MALME-3M melanoma): 1820 nM
- TGI (MALME-3M melanoma): 4.19 µM
- GI50 (A549 NSCLC): 10 µM
- TGI (A549 NSCLC): > 100 µM
- GI50 (COLO 205 colon): 3.98 µM
- TGI (COLO 205 colon): > 100 µM
- GI50 (SNB-19 CNS): 3.41 µM
- TGI (SNB-19 CNS): > 100 µM
- GI50 (HOP-92 NSCLC): 3.73 µM
- TGI (HOP-92 NSCLC): 9.56 µM
- GI50 (HS 578T breast): 2430 nM
- TGI (HS 578T breast): 5.51 µM
- GI50 (IGROV1 ovarian): 46.2 µM
- TGI (IGROV1 ovarian): > 100 µM
- GI50 (NCI-H522 lung): 49.7 µM
- TGI (NCI-H522 lung): > 100 µM
- GI50 (TK-10 renal): 1790 nM
- TGI (TK-10 renal): 3.67 µM
- GI50 (RXF 393 renal): 4.11 µM
- TGI (RXF 393 renal): 20.9 µM
- GI50 (NCI/ADR-RES ovarian): 2960 nM
- TGI (NCI/ADR-RES ovarian): 9.13 µM
- GI50 (MDA-MB-435): 2130 nM
- TGI (MDA-MB-435): 4.49 µM
- GI50 (KM12 colon): 1870 nM
- TGI (KM12 colon): 3.66 µM
- GI50 (HOP-62 NSCLC): 2260 nM
- TGI (HOP-62 NSCLC): 5.3 µM
- GI50 (MCF7 breast): 5.81 µM
- TGI (MCF7 breast): > 100 µM
- GI50 (SK-MEL-5 melanoma): 2490 nM
- TGI (SK-MEL-5 melanoma): 5.39 µM

SMILES: CCOC(=O)c1c2c(c(O)c3ccccc3c(O)n(Cc3ccc(OC)cc3)c1C)C(=O)C=CC2=O
- GI50 (HCC-2998 colon): > 100 µM
- TGI (HCC-2998 colon): > 100 µM
- GI50 (SF-539 CNS): 84.6 µM
- TGI (SF-539 CNS): > 100 µM
- GI50 (OVCAR-4 ovarian): > 100 µM
- TGI (OVCAR-4 ovarian): > 100 µM
- GI50 (UO-31 renal): > 100 µM
- TGI (UO-31 renal): > 100 µM
- GI50 (K-562 leukemia): 76.9 µM
- TGI (K-562 leukemia): > 100 µM
- GI50 (HT29 colon): > 100 µM
- TGI (HT29 colon): > 100 µM
- GI50 (U251 CNS): > 100 µM
- TGI (U251 CNS): > 100 µM
- GI50 (CAKI-1 renal): > 100000 nM
- TGI (CAKI-1 renal): > 100 µM
- GI50 (ACHN renal): > 100 µM
- TGI (ACHN renal): > 100 µM
- GI50 (SF-268 CNS): > 100 µM
- TGI (SF-268 CNS): > 100 µM
- GI50 (MOLT-4 leukemia): 76 µM
- TGI (MOLT-4 leukemia): > 100 µM
- GI50 (OVCAR-5 ovarian): > 100 µM
- TGI (OVCAR-5 ovarian): > 100 µM
- GI50 (UACC-257 melanoma): > 100 µM
- TGI (UACC-257 melanoma): > 100 µM
- GI50 (HCT-116 colon): > 100 µM
- TGI (HCT-116 colon): > 100 µM
- GI50 (SNB-75 CNS): > 100 µM
- TGI (SNB-75 CNS): > 100 µM
- GI50 (OVCAR-3 ovarian): 68.9 µM
- TGI (OVCAR-3 ovarian): > 100 µM
- GI50 (OVCAR-8 ovarian): > 100 µM
- TGI (OVCAR-8 ovarian): > 100 µM
- GI50 (NCI-H460 lung): > 100 µM
- TGI (NCI-H460 lung): > 100 µM
- GI50 (SN12C renal): > 100 µM
- TGI (SN12C renal): > 100 µM
- GI50 (SK-MEL-2 melanoma): > 100 µM
- TGI (SK-MEL-2 melanoma): > 100 µM
- GI50 (A498 renal): > 100 µM
- TGI (A498 renal): > 100 µM
- GI50 (MALME-3M melanoma): > 100000 nM
- TGI (MALME-3M melanoma): > 100 µM
- GI50 (SW-620 colon): > 100 µM
- TGI (SW-620 colon): > 100 µM
- GI50 (SK-OV-3 ovarian): > 100 µM
- TGI (SK-OV-3 ovarian): > 100 µM
- GI50 (786-0 renal): > 100 µM
- TGI (786-0 renal): > 100 µM
- GI50 (A549 NSCLC): > 100 µM
- TGI (A549 NSCLC): > 100 µM
- GI50 (COLO 205 colon): > 100 µM
- TGI (COLO 205 colon): > 100 µM
- GI50 (SNB-19 CNS): > 100 µM
- TGI (SNB-19 CNS): > 100 µM
- GI50 (HOP-92 NSCLC): > 100 µM
- TGI (HOP-92 NSCLC): > 100 µM
- GI50 (T-47D breast): > 100 µM
- TGI (T-47D breast): > 100 µM
- GI50 (HS 578T breast): > 100000 nM
- TGI (HS 578T breast): > 100 µM
- GI50 (IGROV1 ovarian): > 100 µM
- TGI (IGROV1 ovarian): > 100 µM
- GI50 (PC-3 prostate): > 100 µM
- TGI (PC-3 prostate): > 100 µM
- GI50 (LOX IMVI melanoma): > 100 µM
- TGI (LOX IMVI melanoma): > 100 µM
- GI50 (NCI-H522 lung): > 100 µM
- TGI (NCI-H522 lung): > 100 µM
- GI50 (RPMI-8226 leukemia): > 100 µM
- TGI (RPMI-8226 leukemia): > 100 µM
- GI50 (BT-549 breast): > 100 µM
- TGI (BT-549 breast): > 100 µM
- GI50 (TK-10 renal): > 100000 nM
- TGI (TK-10 renal): > 100 µM
- GI50 (RXF 393 renal): > 100 µM
- TGI (RXF 393 renal): > 100 µM
- GI50 (SK-MEL-28 melanoma): > 100 µM
- TGI (SK-MEL-28 melanoma): > 100 µM
- GI50 (UACC-62 melanoma): > 100 µM
- TGI (UACC-62 melanoma): > 100 µM
- GI50 (NCI/ADR-RES ovarian): > 100000 nM
- TGI (NCI/ADR-RES ovarian): > 100 µM
- GI50 (MDA-MB-435): > 100000 nM
- TGI (MDA-MB-435): > 100 µM
- GI50 (KM12 colon): > 100000 nM
- TGI (KM12 colon): > 100 µM
- GI50 (NCI-H226 lung): 65.3 µM
- TGI (NCI-H226 lung): > 100 µM
- GI50 (HOP-62 NSCLC): > 100000 nM
- TGI (HOP-62 NSCLC): > 100 µM
- GI50 (MCF7 breast): > 100 µM
- TGI (MCF7 breast): > 100 µM
- GI50 (M14 melanoma): > 100 µM
- TGI (M14 melanoma): > 100 µM
- GI50 (DU-145 prostate): > 100 µM
- TGI (DU-145 prostate): > 100 µM
- GI50 (HCT-15 colon): > 100 µM
- TGI (HCT-15 colon): > 100 µM
- GI50 (SK-MEL-5 melanoma): > 100000 nM
- TGI (SK-MEL-5 melanoma): > 100 µM
- GI50 (SF-295 CNS): > 100 µM
- TGI (SF-295 CNS): > 100 µM
- GI50 (MDA-MB-231 breast): > 100 µM
- TGI (MDA-MB-231 breast): > 100 µM
- GI50 (NCI-H23 lung): > 100 µM
- TGI (NCI-H23 lung): > 100 µM
- GI50 (EKVX NSCLC): > 100 µM
- TGI (EKVX NSCLC): > 100 µM
